Patent EP4635958A1, “PYRIMIDINE-CONTAINING POLYCYCLIC DERIVATIVE INHIBITOR, AND PREPARATION METHOD THEREFOR AND USE THEREOF” (Shanghai Hansoh Biomedical Co., Ltd., priority 2022, dated 2024)
Where two headings read alike, the source gives them in different places.

Key:
[1] = Pharmacokinetic determination in rats (IV and PO, plasma, LCMS/MS); format: in vivo, SD rats; conditions: male SD rats; for AUC(0-inf): read-out: AUCo-∞; for half-life: read-out: T1/2 (converted); for F: PO 30 mg/kg vs IV 1 mg/kg
Description: SD rats were used as test animals to study the pharmacokinetic behavior of the example compounds in rats (plasma) after oral administration.
The example compounds of the present invention, made in house.
3 SD rats per group, male. Shanghai Jiesijie Experimental Animal Co., Ltd., animal production license number (SCXK (Shanghai) 2013-0006 N0.311620400001794).
Formulation of a drug for oral administration: 10% Captisol in 50 mM citrate buffer pH 5.0.
(§1) Formulation of 50 mM citric acid: 4.8 g of citric acid was weighed into a 1000 ml glass bottle, ultrapure water was added to 300 ml, and the mixture was magnetically stirred until completely dissolved, additional ultrapure water was then added to 500 ml to formulate 50 mM citric acid.
(§2) Formulation of a solution containing 50 mM citric acid (10% Captisol, PH = 5): 50 g of Captisol powder was weighed and added to a 1000 ml glass bottle, 300 ml of 50 mM citric acid was added, and the mixture was magnetically stirred until completely dissolved, then additional citric acid was added to 500 ml, and the PH was adjusted to 5 using 10 M NaOH.
The example compounds were weighed and dissolved in the solution and the mixture was shaken well and subjected to ultrasound treatment for 15 min to obtain a colorless clear solution with a concentration of 3 mg/mL.
(§3) Formulation of a drug for intravenous administration: 5%DMSO+10%Solutol HS15+85%PBS.
(§4) The example compounds were weighed, and 5% DMSO was added according to the total administration volume; the mixture was vortexed and sonicated for 2 min to ensure complete dissolution; then, 10% Solutol HS15 was added, and the mixture was vortexed and sonicated for 2 min to achieve complete dissolution; finally, 85% PBS was added, and the mixture was vortexed and sonicated for 5 min; the obtained mixture was filtered through a 0.22 um membrane to obtain a colorless, transparent, and clear solution with a concentration of 0.2 mg/mL.
3 SD rats per group, male; After overnight fasting, the animals were administered orally (PO) at a dose of 30 mg/kg with an administration volume of 10 mL/kg.
3 SD rats per group, male; After overnight fasting, the animals were administered intravenously (IV) at a dose of 1 mg/kg with an administration volume of 5 mL/kg.
0.2 mL of blood was collected from the jugular vein before administration and at 0.25 h, 0.5 h, 1.0 h, 2.0 h, 4.0 h, 6.0 h, 8.0 h, and 24.0 h after administration and placed in an EDTA-2K test tube, and the test tube was centrifuged at 6000 rpm for 6 min at 4°C to separate the plasma, which was stored at -20°C. the animals were fed 4 h after administration.
The final determination results obtained by applying the LCMS/MS method are shown in the table below: Table 8: Pharmacokinetic parameters of the compounds administered intravenously in rats

GP2D = assay: Inhibition of proliferation of KRAS G12D mutant tumor cell line GP2D (CellTiter-Glo); conditions: read-out: GP2D IC50
Description: Experimental method: When SNU-1, HPAF-II, Panc0403, AsPC-1 or GP2D cells were cultured to the appropriate confluence, and the SNU-1, HPAF-II, Panc0403, AsPC-1 or GP2D cells were collected. The cells were adjusted to the appropriate cell density using complete culture medium, the cell suspension was plated onto a 96-well plate at 90 µL per well, and the plate was placed in the incubator at 37°C and 5% CO2 for adherent culture overnight. Solutions of the compound with different concentrations were formulated using DMSO and culture medium. A vehicle control was set up. […] Then, CellTiter-Glo solution was added, and the obtained mixture was shaken and mixed evenly, incubated in the dark for 10 min, and read with a BioTek Synergy H1 microplate reader. […] Experimental data processing method: The luminescence signal value was used to calculate the inhibition rate. Graphpad Prism software was used to fit the concentration and inhibition rate to a nonlinear regression curve, so as to obtain the IC50 value.

AsPC-1 = assay: Inhibition of proliferation of KRAS G12D mutant tumor cell line AsPC-1 (CellTiter-Glo); format: cell-based; conditions: Homo sapiens, ASPC1, about 72 h
Description: 1. Experimental objective: The inhibition activity of the example compounds on the proliferation of 5 KRAS G12D mutant cell lines SNU-1, HPAF-II, Panc0403, AsPC-1 and GP2D was determined. 2. Experimental instruments: • 2.1 Instruments: Microplate reader (BioTek Synergy H1); Pipette (Eppendorf & Rainin). • 2.2 Reagents: HPAF-II, PANC0403, AsPC-1 and GP2D were purchased from COBIOER BIOSCIENCES CO., LTD; SNU-1 was purchased from the cell bank of Chinese Academy of Sciences, Cell Titer-Glo was purchased from Promega, with a catalog number of G7573; RPMI 1640 was purchased from Gibco, with a catalog number of 22400089; DMEM was purchased from Gibco, with a catalog number of 11995065; FBS was purchased from Gibco, with a catalog number of 10091148; PBS was purchased from Gibco, with a catalog number of 10010023; trypsin was purchased from Gibco, with a catalog number of 25200056; cell culture plates were purchased from Corning Company, with a catalog number of 3610. 3. Experimental method: When SNU-1, HPAF-II, Panc0403, AsPC-1 or GP2D cells were cultured to the appropriate confluence, and the SNU-1, HPAF-II, Panc0403, AsPC-1 or GP2D cells were collected. The cells were adjusted to the appropriate cell density using complete culture medium, the cell suspension was plated onto a 96-well plate at 90 µL per well, and the plate was placed in the incubator at 37°C and 5% CO2 for adherent culture overnight. Solutions of the compound with different concentrations were formulated using DMSO and culture medium. A vehicle control was set up. The solutions of the compound were added to the 96-well plate at 10 µL per well, and the plate was placed in the incubator at 37°C and 5% CO2 for further culture for about 72 h. Then, CellTiter-Glo solution was added, and the obtained mixture was shaken and mixed evenly, incubated in the dark for 10 min, and read with a BioTek Synergy H1 microplate reader. 4. Experimental data processing method: The luminescence signal value was used to calculate the inhibition rate. Graphpad Prism software was used to fit the concentration and inhibition rate to a nonlinear regression curve, so as to obtain the IC50 value. 5. Experimental results: Table 2: Determination of the inhibition activity of the compounds on the proliferation of KRAS G12D mutant tumor cell line GP2D

[2] = Plasma stability test, rat plasma; conditions: Rat plasma, 37°C
From the text: The purpose of this experiment was to detect the stability of the example compounds in plasma of mouse, rat, dog and human.
Liquid chromatography-mass spectrometer, centrifuge, vortexer, pipette, continuous dispenser, 96-well plate, 50% methanol aqueous solution, acetonitrile solution containing internal standard, blank matrix (plasma of rat, dog, or human), Propantheline (propantheline bromide), Mevinolin (lovastatin), and test compound.
After whole blood was collected from animals or humans, it was placed in a test tube containing an anticoagulant and centrifuged at 3500 rpm for 10 min to collect the upper pale yellow plasma.
The compound was weighed and the stock solution was formulated with DMSO and the working solution was formulated with 100 mM phosphate buffer.
2.36 mg of propantheline bromide was weighed and diluted with 1 mL of DMSO into a 10 mM stock solution; 10 µL of 10 mM stock solution was pipetted into 1 mL of 100 mM phosphate buffer to achieve a final concentration of 100 µM.
4.05 mg of lovastatin was weighed and diluted with 1 mL of DMSO into a 10 mM stock solution; 10 µL of 10 mM stock solution was pipetted into 1 mL of 100 mM phosphate buffer to achieve a final concentration of 100 µM.
• 1) In a 96-well plate, 285 µL of plasma and 15 µL of 10 µM compound (test compound) were added in sequence and incubated at 37°C. • 2) 40 µL was taken at 0, 15, 30, 60, 90, and 120 min (the sampling point can be fine-tuned) and 160 µL of acetonitrile stop solution containing internal standard was add. • 3) After centrifugation (3500 rpm, 10 min), 50 µL of supernatant was taken, and 50 µL of DDH2O added for dilution and then the obtained mixture was injected into LC-MS/MS.
• Instruments: Shimadzu LC-20 AD • Chromatographic column: Phenomenex Gemiu ® C18 (50*4.6 mm, 5 µm particle size); • mobile phase: A: Acetonitrile, B: 0.1% formic acid solution 0-8 min: 5% A→95% A, 2.0-2.1 min: 90%A→5% A; Flow rate: 0.8 mL/min; Run time: 5.0 min; Injection volume: 5 µL.
• Instrument: API4000 liquid chromatography-mass spectrometer, AB Company, USA; • the ion source was electrospray ionization source (ESI); • drying gas (N2) temperature was 500°C; • electrospray voltage was 5500V; • the detection method was positive ion detection; • the scanning method was selected reaction monitoring (MRM); • the scanning time was 0.1s.

[3] = Pharmacokinetic determination in mice (IV and PO, plasma, LCMS/MS); format: in vivo, Balb/c mice; conditions: for half-life: read-out: T1/2 (converted)
From the text: • 1. Study objective: Balb/c mice were used as test animals to study the pharmacokinetic behavior of the compounds in mice (plasma) after oral administration. • 2. Test scheme • 2.1 Test drugs: The example compounds of the present invention, made in house; • 2.2 Test animals: Balb/c mice, male, purchased from Shanghai Jiesijie Experimental Animal Co., Ltd., animal production license number (SCXK (Shanghai) 2013-0006 N0.311620400001794). • 2.3 Drug formulation: Formulation of a drug for oral administration: 10% Captisol in 50 mM citrate buffer pH 5.0.
as §1, §2
The example compounds were weighed and added to a 4 mL glass bottle separately, 2.4 mL of the solution was added and the mixture was subjected to ultrasound treatment for 10 min to obtain a colorless clear solution with a concentration of 3 mg/mL.
as §3, §4
3 Balb/c mice, male; After overnight fasting, the animals were administered orally (PO) at a dose of 30 mg/kg with an administration volume of 10 mL/kg.
3 Balb/C mice, male; After overnight fasting, the animals were administered intravenously (IV) at a dose of 1 mg/kg with an administration volume of 5 mL/kg.
0.04 mL of blood was collected from the orbit before administration and at 0.25 h, 0.5 h, 1 h, 2 h, 4 h, 6 h, 8 h, and 24 h after administration and placed in an EDTA-2K test tube, and the test tube was centrifuged at 6000 rpm for 6 min at 4°C to separate the plasma, which was stored at -20°C; the animals were fed 4 h after administration.
The final determination results obtained by applying the LCMS/MS method are shown in the table below: Table 6: Pharmacokinetic parameters of the compounds administered intravenously in mice

[4] = rat, in vivo, PO, 30 mg/kg, overnight fasting, plasma
[5] = rat, in vivo, PO, 30 mg/kg, overnight fasting, plasma, read-out: Cmax
[6] = rat, in vivo, PO, 30 mg/kg, overnight fasting, plasma, read-out: Tmax
[7] = rat, in vivo, IV, 1 mg/kg, overnight fasting, plasma
[8] = IV, 1 mg/kg, overnight fasting, plasma
[9] = PO, 30 mg/kg, overnight fasting, plasma

## C#Cc1c(F)ccc2cc(O)cc(-c3nc4c5c(nc(OCC6(CN7CCCC(=C(F)F)CC7)CC6)nc5c3F)N3C[C@H]5CC[C@H](N5)[C@H]3[C@H](CC)O4)c12 [Example 140]
[1]; [4]
  AUC(0-inf): 2280 ng·h/mL
  half-life: 11 h
[1]; [5]
  Cmax: 118 ng/mL
[1]; [6]
  Tmax: 2 h
GP2D; Homo sapiens, GP2d, 72 h
  IC50: 0.79 nM

## C#Cc1c(F)ccc2cc(O)cc(-c3nc4c5c(nc(OCC6(CN7CCC(=C(F)F)C7)CC6)nc5c3F)N3C[C@H]5CC[C@H](N5)[C@H]3[C@H](C)O4)c12 [Example 130]
AsPC-1
  IC50: 4.2 nM
GP2D; Homo sapiens, GP2d, 72 h
  IC50: 0.33 nM

## CC[C@H](C)C(=O)O[C@H]1C[C@@H](C)C=C2C=C[C@H](C)[C@H](CC[C@@H]3C[C@@H](O)CC(=O)O3)[C@H]21 [Lovastatin, lovastatin, reference compound]
[2]; 0 min
  Remaining rate (%) 0 min: 100.00%
[2]; 15 min
  Remaining rate (%) 15 min: 21.15%
[2]; 30 min
  Remaining rate (%) 30 min: 1.77%
[2]; 60 min
  Remaining rate (%) 60 min: 0.36%
[2]; 120 min
  Remaining rate (%) 120 min: 0.30%

## C#Cc1c(F)ccc2cc(O)cc(-c3nc4c5c(nc(OCC6(CN7CC8CC(=C(F)F)CC8C7)CC6)nc5c3F)N3C[C@H]5CC[C@H](N5)[C@H]3[C@H](C)O4)c12 (some centres unmarked) [Example 133]
[1]; [4]
  AUC(0-inf): 6510 ng·h/mL
  half-life: 7 h
[1]; [5]
  Cmax: 588 ng/mL
[1]; [6]
  Tmax: 4 h
GP2D; Homo sapiens, GP2d, 72 h
  IC50: 0.53 nM

## C#Cc1c(F)ccc2cc(O)cc(-c3nc4c5c(nc(OCC6(CN7CC8CC(=C(F)F)CC8C7)CC6)nc5c3F)N3C[C@H]5CC[C@H](N5)[C@H]3[C@H](CC)O4)c12 (some centres unmarked) [Example 141]
[1]; [4]
  AUC(0-inf): 17300 ng·h/mL
  half-life: 18.9 h
[1]; [5]
  Cmax: 869 ng/mL
[1]; [6]
  Tmax: 2 h
GP2D; Homo sapiens, GP2d, 72 h
  IC50: 0.94 nM

## C#Cc1c(F)ccc2cc(O)cc(-c3nc4c5c(nc(OCC6(CN7CCC(=C(F)F)CC7)CC6)nc5c3F)N3C[C@H]5CC[C@H](N5)[C@H]3[C@H](CC)O4)c12 [Example 124, 4-((5S,5aS,6S,9R)-12-((1-((4-(difluoromethylene)piperidin-1-yl)methyl)cyclopropyl)methoxy)-5-ethyl-1-fluoro-5a,6,7,8,9,10-hexahydro-5H-4-oxa-3,10a,11,13,14-pentaaza-6,9-methylnaphtho[1,8-ab]hept-2-yl)-5-ethynyl-6-fluoronaphthalen-2-ol]
[3]; PO 30 mg/kg vs IV 1 mg/kg, male Balb/c mice
  F: 23%
[3]; mouse, in vivo, Balb/c mice, intravenously (IV), 1 mg/kg, plasma, read-out: AUCo-∞
  AUC(0-inf): 374 ng·h/mL
[3]; mouse, in vivo, Balb/c mice, intravenously (IV), 1 mg/kg, plasma, read-out: C0
  C0: 412 ng/mL
[3]; mouse, in vivo, Balb/c mice, intravenously (IV), 1 mg/kg, plasma, read-out: CL
  clearance: 44.6 mL/min/kg
[3]; mouse, in vivo, Balb/c mice, intravenously (IV), 1 mg/kg, plasma
  half-life: 11.5 h
[3]; mouse, in vivo, PO, 30 mg/kg, male Balb/c mice, overnight fasting, plasma, read-out: AUC0-∞
  AUC(0-inf): 2610 ng·h/mL
[3]; mouse, in vivo, PO, 30 mg/kg, male Balb/c mice, overnight fasting, plasma, read-out: Cmax
  Cmax: 391 ng/mL
[3]; mouse, in vivo, PO, 30 mg/kg, male Balb/c mice, overnight fasting, plasma
  half-life: 6.6 h
[3]; mouse, in vivo, PO, 30 mg/kg, male Balb/c mice, overnight fasting, plasma, read-out: Tmax
  Tmax: 1 h
[1]
  F: 18%
[1]; [7]
  AUC(0-inf): 1110 ng·h/mL
  half-life: 9 h
[1]; rat, in vivo, IV, 1 mg/kg, overnight fasting, plasma, read-out: C0
  C0: 524 ng/mL
[1]; rat, in vivo, IV, 1 mg/kg, overnight fasting, plasma, read-out: CL
  clearance: 15 mL/min/kg
[1]; [4]
  AUC(0-inf): 6170 ng·h/mL
  half-life: 6.8 h
[1]; [5]
  Cmax: 471 ng/mL
[1]; [6]
  Tmax: 6 h
GP2D; Homo sapiens, GP2d, 72 h
  IC50: 0.98 nM

## [2H]C([2H])(Oc1nc2c3c(nc(-c4cc(O)cc5ccc(F)c(C#C)c45)c(F)c3n1)O[C@@H](C)[C@@H]1[C@@H]3CC[C@H](CN21)N3)C1(C([2H])([2H])N2CCC(=C(F)F)C[C@H]2C)CC1 [Example 290]
AsPC-1
  IC50: 6.2 nM
GP2D; Homo sapiens, GP2d, 72 h
  IC50: 0.3 nM

## CC[C@@H]1Oc2nc(-c3cc(N)cc(Cl)c3C(F)(F)F)c(F)c3nc(OCC4(CN5CCC(=CF)CC5)CC4)nc(c23)N2C[C@@H]3CC[C@@H](N3)[C@@H]12 [Example 322, 3-chloro-5-((5S,5aS,6R,9S)-5-ethyl-1-fluoro-12-((1-((4-(fluoromethylene)piperidin-1-yl)methyl)cyclopropyl)methoxy)-5a,6,7,8,9,10-hexahydro-5H-4-oxa-3,10a,11,13,14-pentaaza-6,9-methylnaphtho[1,8-ab]hept-2-yl)-4-(trifluoromethyl)aniline]
[1]; [8]
  AUCo-∞: 219 ng·h/mL
  C0: 326 ng/mL
  CL: 76.2 mL/min/kg
  T1/2: 11.6 h
[1]
  F: 10%
[1]; [9]
  AUCo-∞: 694 ng·h/mL
  Cmax: 40 ng/mL
  T1/2: 10.4 h
  Tmax: 6.0 h
GP2D; proliferation, about 72 h, CellTiter-Glo
  IC50: 0.61 nM
